Measurements published in patent publication US11318153B2, “Method of using Neoandrographolide for lowering blood sugar, lowering blood lipid, improving liver function and improving renal function” (Bioalpha International Sdn. Bhd., priority 2018, dated 2022).

Assays:
Format in all cases: in vivo
[1] = test system: induced type 2 diabetic mice; assay: Water intake test in induced type 2 diabetic mice; details: high dose 10 mg/kg and low dose 2.5 mg/kg; 40-day period; vs induction treatment group STZ
Protocol: (§1) Male ICR mice (19-21 g) were obtained from BioLASCO Taiwan Co., Ltd. The mice were kept in the animal center of Transworld University at a controlled temperature of 22±2° C., relative humidity 55±5%, and with 12 hour light/12 hour dark cycles for 1 week before the experiment. For the induction of type 2 diabetic mice (induction treatment group STZ), Nicotinamide (210 mg/kg b.w.) (Sigma, Saint Louis, Mo., USA), dissolved in saline was intraperitoneally injected into mice. After 15 minutes, the mice were administered with […] (STZ) (Sigma, 180 mg/kg bw, ip injection), which was dissolved in citrate buffer (pH 4.5) before use. The control group received both vehicles. During the experimental period, the animals' food intake and body weight were monitored once a week. […]
In general, diabetic patients usually have clinical symptoms of “drinking more water.” In this experimental example, the water intake was recorded in a 40-day period for the blank group Sham, the induction treatment group STZ, Neoandrographolide low dose group NeoL (2.5 mg/kg), Neoandrographolide middle dose group NeoM (5.0 mg/kg) and Neoandrographolide high dose group NeoH (10 mg/kg).

[2] = test system: induced type 2 diabetic mice; assay: Triglyceride assay
Protocol: (§2) Male ICR mice (19-21 g) were obtained from BioLASCO Taiwan Co., Ltd. The mice were kept in the animal center of Transworld University at a controlled temperature of 22±2° C., relative humidity 55±5%, and with 12 hour light/12 hour dark cycles for 1 week before the experiment. For the induction of type 2 diabetic mice (induction treatment group STZ), Nicotinamide (210 mg/kg b.w.) (Sigma, Saint Louis, Mo., USA), dissolved in saline was intraperitoneally injected into mice. After 15 minutes, the mice were administered with […] (STZ) (Sigma, 180 mg/kg bw, ip injection), which was dissolved in citrate buffer (pH 4.5) before use. The control group received both vehicles. During the experimental period, the animals' food intake and body weight were monitored once a week. In addition, the dosage of the Neoandrographolide (Sigma-Aldrich Chemical Co., Missouri, USA) of the present invention is: NeoL (low dose group of Neoandrographolide): Neoandrographolide 2.5 mg/kg; NeoM (middle dose group of Neoandrographolide): Neoandrographolide 5.0 mg/kg; NeoH (high dose group of Neoandrographolide): Neoandrographolide 10 mg/kg. The above active ingredient was dissolved in Tween 20 and adjusted to a 0.5% methylcellulose (CMC) solution. The blank group (Sham) was normal mice without induction treatment.
(§3) After completion of the test, surviving animals were sacrificed; before necropsy, blood samples were collected for serum biochemistry.
(§4) In this experimental example, the triglyceride values and the total cholesterol in blood of mice were recorded in a 42-day period after continuous administration for the blank group Sham, the induction treatment group STZ, Neoandrographolide low dose group NeoL (2.5 mg/kg), Neoandrographolide middle dose group NeoM (5.0 mg/kg) and Neoandrographolide high dose group NeoH (10 mg/kg).

[3] = test system: induced type 2 diabetic mice; assay: Serum creatinine assay; details: NeoL 2.5, NeoM 5.0, NeoH 10 mg/kg; after 42 days of continuous administration; vs induction treatment group STZ
Protocol: as §1
as §4, with “serum creatine index” for “triglyceride values and the total cholesterol in blood”, “was” for “were”

[4] = test system: induced type 2 diabetic mice; assay: Glycated hemoglobin (HbA1c) assay; details: NeoL 2.5, NeoM 5.0, NeoH 10 mg/kg; after 42 days of continuous administration; vs induction treatment group STZ
Protocol: as §1
as §4, with “glycated hemoglobin (HbA1c)” for “triglyceride”, “values” for “values and the total cholesterol in blood”

[5] = test system: induced type 2 diabetic mice; assay: Total cholesterol assay
Protocol: as §1, §4

[6] = test system: induced type 2 diabetic mice; assay: Fasting blood glucose assay; details: NeoL 2.5, NeoM 5.0, NeoH 10 mg/kg; seven days after administration; vs induction treatment group STZ
Protocol: as §1
as §4, with “fasting blood glucose” for “triglyceride”, “values” for “values and the total cholesterol in blood of mice”, “period” for “period after continuous administration”

[7] = test system: induced type 2 diabetic mice; assay: Uric acid assay; details: NeoL 2.5, NeoM 5.0, NeoH 10 mg/kg; after 42 days of continuous administration; vs induction treatment group STZ
Protocol: as §1
as §4, with “serum uric acid index” for “triglyceride values and the total cholesterol in blood”, “was” for “were”

[8] = test system: induced type 2 diabetic mice; assay: Aspartate aminotransferase (AST) assay
Protocol: as §2, §3
as §4, with “AST index” for “triglyceride values and the total cholesterol in blood”

[9] = test system: induced type 2 diabetic mice; assay: Oral glucose tolerance test; details: NeoL 2.5, NeoM 5.0, NeoH 10 mg/kg; within 0 to 3 hours after glucose 2 g/kg; vs induction treatment group STZ
Protocol: as §2, with “treatment. […]” for “treatment.”

[10] = NeoL 2.5, NeoM 5.0, NeoH 10 mg/kg, after 42 days of continuous administration, vs induction treatment group STZ

## C=C1CC[C@@H]2[C@](C)(CO[C@@H]3O[C@H](CO)[C@@H](O)[C@H](O)[C@H]3O)CCC[C@@]2(C)[C@@H]1CCC1=CCOC1=O [Neoandrographolide]
[1]
  amount of water intake: significantly reduced
[2]; 2.5 to 10 mg/kg, 42 days
  dose dependence of triglyceride-lowering effect: dose-dependent
[2]; 42 days
  minimum effective dose, triglyceride-lowering effect: 2.5 mg/kg
[2]; [10]
  triglyceride values: lower
[2]; NeoM 5.0 mg/kg and NeoH 10 mg/kg, 42 days, compared among the three dose groups
  triglyceride values, middle and high dose groups: lowest triglyceride values
[3]
  serum creatinine index: significantly lower
[4]
  HbA1c values: significantly lower
[5]; 42 days
  minimum effective dose, lowering total cholesterol in the blood: 2.5 mg/kg
[5]; [10]
  total cholesterol values in the blood: lower
[6]
  fasting blood glucose values: significantly lower
[7]
  serum uric acid index: significantly lower
[8]; NeoL 2.5 mg/kg, 42 days, compared among the three dose groups
  AST values, low dose group: most significant reduction
[8]; [10]
  AST index: slightly lower
[8]; judged from the experiment
  minimum effective dose, improving liver function (AST): around 2.5 mg/kg
[9]
  blood glucose levels in oral glucose tolerance test: significantly lower
